Data from ChEMBL document CHEMBL3885881, “DrugMatrix”.

Organism: Rattus norvegicus
Assay: DrugMatrix - Regimen: Daily Repeat
Format: toxicity, organism-based, Sprague-Dawley
Design: regimen Daily Repeat, gender Male, age 6-8 weeks
Conditions: in vivo, po, 10 mg/kg, route oral GAVAGE, dose level Low, vehicle .5 % CMC; for ABSOLUTE BASOPHIL / ABSOLUTE EOSINOPHIL / ABSOLUTE LYMPHOCYTE / ABSOLUTE MONOCYTE / ABSOLUTE SEGMENTED NEUTROPHIL / BASOPHIL / EOSINOPHIL / ERYTHROCYTE COUNT / HEMATOCRIT / HEMOGLOBIN / LEUKOCYTE COUNT / LYMPHOCYTE / MEAN CORPUSCULAR HEMOGLOBIN / MEAN CORPUSCULAR HEMOGLOBIN CONCENTRATION / MEAN CORPUSCULAR VOLUME / MONOCYTE / NEUTROPHIL / NUCLEATED RED BLOOD CELLS / PLATELET COUNT: tissue Blood; for ALANINE AMINOTRANSFERASE / ALBUMIN / ALKALINE PHOSPHATASE / ASPARTATE AMINOTRANSFERASE / BLOOD UREA NITROGEN / CARBON DIOXIDE / CHLORIDE / CHOLESTEROL / CREATINE PHOSPHOKINASE / CREATININE / GLUCOSE / LACTATE DEHYDROGENASE / LIPASE / PHOSPHORUS / POTASSIUM / SODIUM / TOTAL BILIRUBIN / TOTAL PROTEIN / URIC ACID: tissue Plasma

## CC(=O)O[C@]1(C(C)=O)CC[C@H]2[C@@H]3C=C(Cl)C4=CC(=O)CC[C@]4(C)[C@H]3CC[C@@]21C [CHLORMADINONE ACETATE]
72 h, time 3 day
  ABSOLUTE BASOPHIL: 0 CELLS/uL
  ABSOLUTE EOSINOPHIL: 58.33 CELLS/uL
  ABSOLUTE LYMPHOCYTE: 11175 CELLS/uL
  ABSOLUTE MONOCYTE: 59.67 CELLS/uL
  ABSOLUTE SEGMENTED NEUTROPHIL: 507 CELLS/uL
  BASOPHIL: 0%
  EOSINOPHIL: 0.33%
  ERYTHROCYTE COUNT: 5.63 x10E6/uL
  HEMATOCRIT: 35.5%
  HEMOGLOBIN: 14.3 G/DL
  LEUKOCYTE COUNT: 11.8 x10E3/uL
  LYMPHOCYTE: 94.67%
  MEAN CORPUSCULAR HEMOGLOBIN: 25.37 pg
  MEAN CORPUSCULAR HEMOGLOBIN CONCENTRATION: 40.27 G/DL
  MEAN CORPUSCULAR VOLUME: 63 fL
  MONOCYTE: 0.67%
  NEUTROPHIL: 4.33%
  NUCLEATED RED BLOOD CELLS: 0 /100WBC
  PLATELET COUNT: 925.33 x10E3/uL
  ALANINE AMINOTRANSFERASE: 52 u/L
  ALBUMIN: 4.5 G/DL
  ALKALINE PHOSPHATASE: 475 u/L
  ASPARTATE AMINOTRANSFERASE: 70.67 u/L
  BLOOD UREA NITROGEN: 17.67 mg/dL
  CARBON DIOXIDE: 33 mmol/L
  CHLORIDE: 101 MEQ/L
  CHOLESTEROL: 81.67 mg/dL
  CREATINE PHOSPHOKINASE: 138.33 u/L
  CREATININE: 0.17 mg/dL
  GLUCOSE: 135.67 mg/dL
  LACTATE DEHYDROGENASE: 134.67 u/L
  LIPASE: 12 u/L
  PHOSPHORUS: 11.17 mg/dL
  POTASSIUM: 6.06 MEQ/L
  SODIUM: 149.35 MEQ/L
  TOTAL BILIRUBIN: 0.3 mg/dL
  TOTAL PROTEIN: 6.37 G/DL
  URIC ACID: 0.67 mg/dL
120 h, time 5 day
  ABSOLUTE BASOPHIL: 0 CELLS/uL
  ABSOLUTE EOSINOPHIL: 0 CELLS/uL
  ABSOLUTE LYMPHOCYTE: 14416.33 CELLS/uL
  ABSOLUTE MONOCYTE: 46.33 CELLS/uL
  ABSOLUTE SEGMENTED NEUTROPHIL: 1304 CELLS/uL
  BASOPHIL: 0%
  EOSINOPHIL: 0%
  ERYTHROCYTE COUNT: 6.23 x10E6/uL
  HEMATOCRIT: 37.17%
  HEMOGLOBIN: 14.57 G/DL
  LEUKOCYTE COUNT: 15.77 x10E3/uL
  LYMPHOCYTE: 91.67%
  MEAN CORPUSCULAR HEMOGLOBIN: 23.47 pg
  MEAN CORPUSCULAR HEMOGLOBIN CONCENTRATION: 39.23 G/DL
  MEAN CORPUSCULAR VOLUME: 59.77 fL
  MONOCYTE: 0.33%
  NEUTROPHIL: 8%
  NUCLEATED RED BLOOD CELLS: 0 /100WBC
  PLATELET COUNT: 1116.33 x10E3/uL
  ALANINE AMINOTRANSFERASE: 54.33 u/L
  ALBUMIN: 4.47 G/DL
  ALKALINE PHOSPHATASE: 380.67 u/L
  ASPARTATE AMINOTRANSFERASE: 92.67 u/L
  BLOOD UREA NITROGEN: 14 mg/dL
  CARBON DIOXIDE: 25.67 mmol/L
  CHLORIDE: 102.33 MEQ/L
  CHOLESTEROL: 79.67 mg/dL
  CREATINE PHOSPHOKINASE: 290.67 u/L
  CREATININE: 0.13 mg/dL
  GLUCOSE: 156.67 mg/dL
  LACTATE DEHYDROGENASE: 269 u/L
  LIPASE: 9.67 u/L
  PHOSPHORUS: 12.67 mg/dL
  POTASSIUM: 7.15 MEQ/L
  SODIUM: 146.13 MEQ/L
  TOTAL BILIRUBIN: 0.2 mg/dL
  TOTAL PROTEIN: 6.27 G/DL
  URIC ACID: 1.77 mg/dL
